{"source": "patent US7932421B2", "about": "“N-cyclohexyl benzamides and benzeneacetamides as inhibitors of 11-beta-hydroxysteroid dehydrogenases” (Amgen Inc., priority 2006, dated 2011)", "data": [{"target": "T1, human 11β-HSD1 (Homo sapiens, UniProt P28845)", "T1 construct": "made in house", "T1 sequence (P28845 whole entry)": "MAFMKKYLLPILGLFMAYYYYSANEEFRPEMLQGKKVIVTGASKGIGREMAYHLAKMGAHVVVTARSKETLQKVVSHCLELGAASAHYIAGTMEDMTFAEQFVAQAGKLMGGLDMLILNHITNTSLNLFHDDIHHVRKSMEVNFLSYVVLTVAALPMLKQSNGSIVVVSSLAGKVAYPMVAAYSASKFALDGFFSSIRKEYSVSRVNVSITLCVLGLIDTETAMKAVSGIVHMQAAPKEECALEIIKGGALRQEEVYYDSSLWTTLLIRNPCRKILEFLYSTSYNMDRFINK", "experiment": "hHSD1 SPA: inhibition of 11β-HSD1 (cortisone to cortisol conversion, scintillation proximity assay)", "type": "biochemical", "settings": "recombinant human 11β-HSD1, SPA", "description": "Inhibition of 11β-HSD1 activity was examined by quantitative determination, by an SPA (scintillation proximity assay) system, of the suppressive action on the conversion from cortisone to cortisol using human 11β-HSD1 (hereinafter recombinant 11β-HSD1) expressed using a baculo-virus system as an enzyme source. For the reaction, a reagent was added to a 96-well plate (96-well Opti-plates™-96 (Packard)) to the following final concentration and a volume of 100 μl, and the reaction transpired at room temperature for 90 min. The reaction solution used was 0.1 μg/ml recombinant 11β-HSD1, 500 μM NADPH, 16 nM ^3H cortisone (Amersham Biosciences, […]) dissolved in 0.1% BSA (Sigma)-containing PBS and the test drug was 2 μl of a compound solution (dissolved in DMSO). […] After completion of the reaction, the plate was incubated overnight at room temperature and the radioactivity was measured by Topcount (Packard). […] The inhibition (%) of the test drug was calculated by ((value of control−value of test drug)/(value of control−value of positive control))×100(%). The IC50 value was analyzed using a computer-based curve fitting software.\nRecombinant human, mouse and rat 11β-HSD1 were expressed in baculovirus expression system, isolated by affinity purification and used as the enzyme sources for cortisone to cortisol conversion in vitro. ^3H-Cortisone (Amersham Bioscience, […]. 49 Ci/mmol) was used as the substrate, and a monoclonal anti-cortisol antibody and the scintillation proximity assay (SPA) system were used to detect the product of the 11β-HSD1-catalyzed reaction, ^3H-cortisol. Reactions took place at room temperature for 90 min. in 96-well Opti-plates™-96 (Packard) in 100 μL volume with 2 μL test compounds or control in DMSO, 0.1 μg/mL 11β-HSD1 protein, 500 μM NADPH and 16 nM radioactive cortisone, in PBS buffer supplemented with 0.1% BSA (Sigma).\nPlates were incubated at room temperature overnight before being read on a Topcount (Packard). The point of 50% inhibition of 11β-HSD1 enzyme activity (IC50) was determined by computer-based curve fitting.", "units": {"IC50": "µM"}, "values": [{"smiles": "O=C(c1ccc(Br)cc1F)N(C1CC1)[C@H]1CC[C@H](CCO)CC1", "note": "[Compound 8, 4-Bromo-N-cyclopropyl-2-fluoro-N-(trans-4-(2-hydroxyethyl)cyclohexyl)benzamide]", "IC50": 0.00106}, {"smiles": "COc1ccc(C(=O)N(C2CC2)[C@H]2CC[C@](CCO)(c3ccccn3)CC2)cc1", "note": "[Compound 24]", "IC50": 0.0594}, {"smiles": "COc1cccc(C(=O)N(C2CC2)[C@H]2CC[C@](CCO)(c3ccccn3)CC2)c1", "note": "[Compound 23]", "IC50": 0.0614}, {"smiles": "CC(C)c1ccc(C(=O)N(C2CC2)[C@H]2CC[C@H](CCO)CC2)cc1", "note": "[Compound 11, N-Cyclopropyl-4-isopropyl-N-(trans-4-(2-hydroxyethyl)cyclohexyl)benzamide]", "IC50": 0.00094}, {"smiles": "O=C(c1ccc(Cl)cc1)N(C1CC1)[C@H]1CC[C@](CCO)(c2ccccn2)CC1", "note": "[Compound 19]", "IC50": 0.023}, {"smiles": "O=C(c1ccc(F)cc1)N(C1CC1)[C@H]1CC[C@](CCO)(c2ccccn2)CC1", "note": "[Compound 16]", "IC50": "> 0.1"}, {"smiles": "Cc1ccc(C(=O)N(C2CC2)[C@H]2CC[C@H](CC(C)(C)O)CC2)c(F)c1", "note": "[Compound 2, N-cyclopropyl-2-fluoro-N-(trans-4-(2-hydroxy-2-methylpropyl)cyclohexyl)-4-methylbenzamide]", "IC50": 0.00689}, {"smiles": "O=C(c1cccc(F)c1F)N(C1CC1)[C@H]1CC[C@H](CCO)CC1", "note": "[Compound 7, N-Cyclopropyl-2,3-difluoro-N-(trans-4-(2-hydroxyethyl)cyclohexyl)benzamide]", "IC50": 0.0308}, {"smiles": "O=C(c1ccc(F)cc1)N(C1CC1)[C@H]1CC[C@H](CCO)CC1", "note": "[Compound 5, N-Cyclopropyl-4-fluoro-N-(trans-4-(2-hydroxyethyl)cyclohexyl)benzamide]", "IC50": 0.0219}, {"smiles": "O=C(c1ccc(C(F)(F)F)cc1)N(C1CC1)[C@H]1CC[C@](CCO)(c2ccccn2)CC1", "note": "[Compound 31]", "IC50": 0.0543}, {"smiles": "CC(C)(C)c1ccc(C(=O)N(C2CC2)[C@H]2CC[C@](CCO)(c3ccccn3)CC2)cc1", "note": "[Compound 29]", "IC50": 0.0121}, {"smiles": "CC(C(=O)N(C1CC1)[C@H]1CC[C@H](CCO)CC1)c1ccccc1", "note": "(stereo partly drawn) [Compound 32, N-Cyclopropyl-N-(trans-4-(2-hydroxyethyl)cyclohexyl)-2-phenylpropionamide]", "IC50": 0.0521}, {"smiles": "COc1ccc(C(=O)N(C2CC2)[C@H]2CC[C@](CCO)(c3ccccn3)CC2)c(F)c1", "note": "[Compound 25]", "IC50": 0.0217}, {"smiles": "O=C(c1cccc(F)c1)N(C1CC1)[C@H]1CC[C@H](CCO)CC1", "note": "[Compound 4, N-Cyclopropyl-3-fluoro-N-(trans-4-(2-hydroxyethyl)cyclohexyl)benzamide]", "IC50": 0.0405}, {"smiles": "O=C(c1ccccc1F)N(C1CC1)[C@H]1CC[C@H](CCO)CC1", "note": "[Compound 3, N-Cyclopropyl-2-fluoro-N-(trans-4-(2-hydroxyethyl)cyclohexyl)benzamide]", "IC50": 0.00395}, {"smiles": "O=C(c1cccc(F)c1)N(C1CC1)[C@H]1CC[C@](CCO)(c2ccccn2)CC1", "note": "[Compound 15]", "IC50": 0.0452}, {"smiles": "Cc1ccc(C(=O)N(C2CC2)[C@H]2CC[C@H](CCO)CC2)c(F)c1", "note": "[Compound 1, N-cyclopropyl-2-fluoro-N-(trans-4-(2-hydroxyethyl)cyclohexyl)-4-methylbenzamide]", "IC50": 0.00194}, {"smiles": "CN(C)C(=O)c1ccc(C(=O)N(C2CC2)[C@H]2CC[C@](CCO)(c3ccccn3)CC2)cc1", "note": "[Compound 27]", "IC50": "> 0.1"}, {"smiles": "O=C(c1ccc(Cl)cc1)N(C1CC1)[C@H]1CC[C@H](CCO)CC1", "note": "[Compound 6, 4-Chloro-N-cyclopropyl-N-(trans-4-(2-hydroxyethyl)cyclohexyl)benzamide]", "IC50": 0.0069}, {"smiles": "COc1ccc(C(=O)N(C2CC2)[C@H]2CC[C@H](CCO)CC2)cc1", "note": "[Compound 9]", "IC50": 0.00635}, {"smiles": "O=C(c1ccccc1)N(C1CC1)[C@H]1CC[C@H](CCO)CC1", "note": "[Compound 13, N-Cyclopropyl-N-(trans-4-(2-hydroxyethyl)cyclohexyl)benzamide]", "IC50": 0.0183}, {"smiles": "O=C(c1ccccc1F)N(C1CC1)[C@H]1CC[C@](CCO)(c2ccccn2)CC1", "note": "[Compound 14]", "IC50": 0.0209}, {"smiles": "CC(C)c1ccc(C(=O)N(C2CC2)[C@H]2CC[C@](CCO)(c3ccccn3)CC2)cc1", "note": "[Compound 28]", "IC50": 0.0072}, {"smiles": "Cc1ccc(C(=O)N(C2CC2)[C@H]2CC[C@](CCO)(c3ccccn3)CC2)cc1", "note": "[Compound 26]", "IC50": 0.0114}]}]}
